From patent US7098228B2, “Indolyl derivatives” (Hoffmann-La Roche Inc., priority 2002, dated 2006) come the findings set out here.

Test [1] addresses T1, PPARγ (Mus musculus, UniProt P37238).
T1 sequence (P37238 204-505): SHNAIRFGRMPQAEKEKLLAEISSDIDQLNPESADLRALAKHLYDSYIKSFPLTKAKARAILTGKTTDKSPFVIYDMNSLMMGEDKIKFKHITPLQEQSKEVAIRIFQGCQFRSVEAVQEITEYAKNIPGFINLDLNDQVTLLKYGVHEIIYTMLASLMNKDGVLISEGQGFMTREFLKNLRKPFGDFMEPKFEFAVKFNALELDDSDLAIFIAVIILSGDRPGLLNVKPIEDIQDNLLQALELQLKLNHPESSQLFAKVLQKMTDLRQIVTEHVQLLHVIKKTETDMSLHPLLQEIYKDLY
In words: PPARγ radioligand binding assay (scintillation proximity, GST-PPARγ-LBD). Details: made in house; host or cells: E. coli BL21 (pLysS). The text has this:
(§1) Full-length cDNA clones for human PPARα and mouse PPARγ were obtained by RT-PCR from human adipose and mouse liver cRNA, respectively, cloned into plasmid vectors and verified by DNA sequencing. […] To accomplish this, the portions of the cloned sequences encoding the LBDs were amplified from the full-length clones by PCR and then subcloned into the plasmid vectors. Final clones were verified by DNA sequence analysis.
Induction, expression, and purification of GST-LBD fusion proteins were performed in E. coli strain BL21 (pLysS) cells by standard methods (Ref: Current Protocols in Molecular Biology, Wiley Press, edited by Ausubel et al.).
Radioligand Binding Assay
PPARγ receptor binding was assayed in TKE50 (50 mM Tris-HCl, pH 8, 50 mM KCl, 2 mM EDTA, 0.1 mg/ml fatty acid-free BSA and 10 mM DTT). For each 96 well reaction an 140 ng equivalent of GST-PPARγ-LBD fusion protein was bound to 10 ug SPA beads (PharmaciaAmersham) in a final volume of 50 ul by shaking. The resulting slurry was incubated for 1 h at RT and centrifuged for 2 min at 1300 g. The supernatant containing unbound protein was removed and the semidry pellet containig the recptor-coated beads was resolved in 50 ul of TKE. For radioligand binding e.g. 10000 dpm 2(S)-(2-benzoyl-phenylamino)-3-{4-[1,1-ditritio-2-(5-methyl-2-phenyl-oxazol-4-yl) -ethoxy]-phenyl}-propionic acid in 50 ul were added, the reaction incubated at RT for 1 h and scintillation proximity counting performed. All binding assays were performed in 96 well plates and the amount of bound ligand measured on a Packard TopCount using OptiPlates (Packard). Nonspecific binding was determined in the presence of 10^−4 M unlabelled compound. Dose response curves were done in triplicates within a range of concentration from 10^−10 M to 10^−4 M.
A general note: SPA uses beads or plates that emit light when radiolabelled molecules are held near them.

The next test addresses T2, PPARα (Homo sapiens, UniProt Q07869).
T2 construct: PPARα (aa 167 to 469); expressed in transfected cells; host or cells: BHK21 (ATCC CCL10)
T2 sequence (Q07869 167-468 limits assumed): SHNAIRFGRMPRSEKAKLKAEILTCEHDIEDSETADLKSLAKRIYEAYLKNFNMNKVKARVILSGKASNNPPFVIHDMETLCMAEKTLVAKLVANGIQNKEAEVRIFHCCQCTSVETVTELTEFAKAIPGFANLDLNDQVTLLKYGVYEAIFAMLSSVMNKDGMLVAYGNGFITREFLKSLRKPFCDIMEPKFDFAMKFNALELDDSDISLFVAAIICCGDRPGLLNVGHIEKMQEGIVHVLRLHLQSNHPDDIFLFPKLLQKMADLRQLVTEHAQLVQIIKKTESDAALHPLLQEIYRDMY
In words: Luciferase transcriptional reporter gene assay, pFA-PPARα-LBD in BHK21 cells. The test is classed as cell-based.
From the text: as §1
(§2) Luciferase Transcriptional Reporter Gene Assays
(§3) Baby hamster kidney cells (BHK21 ATCC CCL10) were grown in DMEM medium containing 10% FBS at 37° C. in a 95% O2:5% CO2 atmosphere. Cells were seeded in 6 well plates at a density of 10^5 Cells/well and then batch-transfected with either the pFA-PPARγ-LBD or pFA-PPARα-LBD expression plasmids plus the pFR-luc reporter plasmid and an expression plasmid encoding the secretable form of alkaline phosphatase (SEAP) as a normalization control. […] Six hours following transfection, the cells were harvested by trypsinization and seeded in 96 well plates at a density of 10^4 cells/well. After 24 hours to allow attachment of cells, the medium was removed and replaced with 100 ul of phenol red-free medium containing the test substances or control ligands (final. 0.1% DMSO). Following incubation of the cells for 24 hours with substances, 50 ul of the supernatant was recovered and analyzed for SEAP activity (Roche Molecular Biochemicals). The remainder of the supernatant was discarded, 50 ul PBS was added per well followed by one volume of Luciferase Constant-Light Reagent (Roche Molecular Biochemicals) to lyse the cells and initiate the luciferase reaction. Luminescence for both SEAP and luciferase was measured in a Packard TopCount. Luciferase activity was normalized to the SEAP control and transcriptional activation in the presence of a test substance was expressed as fold-activation over cells incubated in the absence of the substance. EC50 values were calculated using the XLfit program (ID Business Solutions Ltd. UK).

Test [2] has as its target T1, PPARγ. In words: Luciferase transcriptional reporter gene assay, pFA-PPARγ-LBD in BHK21 cells. The test is classed as cell-based.
From the text: as §1, §2, §3
(In a reporter assay the amount or activity of a reporter protein is the signal.)

By IC50 is commonly meant the midpoint of a concentration-inhibition curve. As a reminder, the EC50 is the midpoint of the concentration-response curve. High values mean lower potency in that assay, low ones higher potency in that assay.

As for `CCOC(Cc1cccc2c1ccn2Cc1nc(-c2cc(OC)cc(OC)c2)oc1C)C(=O)O` (racemic) [Example 1, rac-3-{1-[2-(3,5-Dimethoxy-phenyl)-5-methyl-oxazol-4-ylmethyl]-1H-indol-4-yl}-2-ethoxy-propionic acid], the IC50 on PPARγ [1] was 68 nM. Besides, the results for the EC50 at PPARα and on PPARγ [2] were 8 nM and 7 nM, respectively.
Take `CCOC(Cc1cccc2c1ccn2Cc1nc(-c2ccc(C(C)C)cc2)oc1C)C(=O)O` (racemic) [Example 2, rac-2-Ethoxy-3-{1-[2-(4-isopropyl-phenyl)-5-methyl-oxazol-4-ylmethyl]-1H-indol-4-yl}-propionic acid]: the IC50 on PPARγ [1] was 53 nM. Also, the results for the EC50 on PPARα and at PPARγ [2] were 200 nM and 93 nM, respectively.
Compound `CCOC(Cc1cccc2c1ccn2CCCc1nc(-c2ccccc2)oc1C)C(=O)O` (racemic) [Example 3, rac-2-Ethoxy-3-{1-[3-(5-methyl-2-phenyl-oxazol-4-yl)-propyl]-1H-indol-4-yl}-propionic acid] came in with an EC50 at PPARα of 190 nM.
`CCOC(Cc1cccc2c1ccn2Cc1nc(-c2ccc(C(F)(F)F)cc2)oc1C)C(=O)O` (racemic) [Example 10, rac-2-Ethoxy-3-{1-[5-methyl-2-(4-trifluoromethyl-phenyl)-oxazol-4-ylmethyl]-1H-indol-4-yl}-propionic acid]: the IC50 at PPARγ [1] came to 1400 nM. For the same compound, the EC50 worked out at 44 nM on PPARα and 140 nM on PPARγ [2].
